Experimental data published in patent publication US10981932B2, “Macrocyclic indole derivatives” (Bayer Aktiengesellschaft, priority 2016, dated 2021).
Counter-ions that a name gives are not always drawn. Like-named read-outs stand apart in the source and are kept apart here.

Key:
[1] = molecular target: MCL-1 (Homo sapiens, UniProt Q07820); assay: Protein-protein interaction assay MCL-1/Noxa BH3 peptide (MCL-1 assay), TR-FRET; format: binding; conditions: MBP-MCL-1 / Noxa BH3-derived peptide, median
Method in brief: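 Displacement of the biotinylated Noxa BH3 peptide from MBP-tagged human MCL-1 (1 nM) is detected by time-resolved FRET. Compounds are tested in duplicate across eleven concentrations up to 20 μM, incubated 1 h at 22 °C and overnight at 4 °C, and IC50 is fitted with a four-parameter equation.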

[2] = test system: SUDHL5; assay: Induction of caspase-3/7 activity (Caspase-Glo 3/7), SUDHL5; format: cell-based; conditions: caspase-3/7 induction, SUDHL5 cells, 3 h treatment; median
Method in brief: (§1)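 Caspase-Glo 3/7 luminescence, 3 h compound exposure, 37 °C, humidified. Minus medium-only blank. EC50 fit: C0=1, plateau = reference max induction.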

[3] = test system: SUDHL10; assay: Induction of caspase-3/7 activity (Caspase-Glo 3/7), SUDHL10; format: cell-based; conditions: caspase-3/7 induction, SUDHL10 cells, 3 h treatment, median
Method in brief: as §1

[4] = test system: SUDHL5; assay: Anti-proliferative effect (CellTiter-Glo, 72 h), SUDHL5; format: cell-based; conditions: SUDHL5 cells, antiproliferation, 72 h incubation, median, read-out: Antiproli SUDHL5 [M] (median)
Method in brief: (§2)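 CTG luminescence read-out after 72 h compound exposure, 37 °C, humidified. Time-zero reference plate read at plating.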

[5] = test system: A2780; assay: Anti-proliferative effect (CellTiter-Glo, 72 h), A2780; format: cell-based; conditions: A2780 cells, median, read-out: IC50 antiproliferation assay A2780 [M] (median)
Method in brief: as §2

[6] = test system: SUDHL5; assay: Induction of cytotoxicity (CellTiter-Glo, 5 h), SUDHL5; conditions: read-out: Cytotox SUDHL5 [M] (median); SUDHL5 cells, cytotoxicity induction, CellTiter-Glo, 5 h incubation, median
[7] = test system: SUDHL10; assay: Induction of cytotoxicity (CellTiter-Glo, 5 h), SUDHL10
[8] = read-out: Cytotox SUDHL10 [M] (median), SUDHL10 cells, cytotoxicity induction, CellTiter-Glo, 5 h incubation, median
[9] = Homo sapiens, SU-DHL10, 5 h, read-out: Cytotox SUDHL10 [M] (median), SUDHL10 cells, cytotoxicity induction, CellTiter-Glo, 5 h incubation, median

MCL-1, sequence (Q07820 whole entry): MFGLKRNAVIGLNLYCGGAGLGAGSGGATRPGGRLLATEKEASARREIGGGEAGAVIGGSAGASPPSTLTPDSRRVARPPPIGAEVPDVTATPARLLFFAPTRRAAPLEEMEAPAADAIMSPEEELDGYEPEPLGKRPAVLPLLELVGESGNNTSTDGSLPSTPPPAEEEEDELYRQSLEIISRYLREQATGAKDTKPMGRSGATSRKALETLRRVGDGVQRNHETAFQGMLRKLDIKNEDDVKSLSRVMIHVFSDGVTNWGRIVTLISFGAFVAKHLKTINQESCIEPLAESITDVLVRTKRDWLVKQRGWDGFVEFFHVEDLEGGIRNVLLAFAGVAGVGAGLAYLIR

## CCc1nn(C)c2c1-c1c(C)ccc3c(C(C)CCOc4cccc5cc(F)ccc45)c(C(=O)O)n(c13)CCCCOC2 (single isomer, unassigned) [Example 264, 3-ethyl-7-{4-[(6-fluoronaphthalen-1-yl)oxy]butan-2-yl}-1,4-dimethyl-1,10,11,12,13,15-hexahydropyrazolo[4′,3′:9,10][1,6]oxazacycloundecino[8,7,6-hi]indole-8-carboxylic Acid]
[1]
  IC50: 0.132 µM
[2]
  EC50: > 33 µM
[3]
  EC50: > 33 µM
[4]
  IC50: 1.67e-05 M
[5]
  IC50: 1.92e-05 M
[6]
  IC50: > 3.3e-05 M
[7]; [8]
  IC50: > 3.3e-05 M

## Cc1nn(C)c2c1-c1cccc3c(CCCOc4cccc5ccccc45)c(C(=O)O)n(c13)CCCN(c1ccc(N3CCN(S(=O)(=O)N(C)C)CC3)cc1)C2 (single isomer, unassigned; enantiomer 1) [Example 1-106, 7-{4-[4-(Dimethylsulfamoyl)piperazin-1-yl]phenyl}-9,11-dimethyl-1-[3-(1-naphthyloxy)propyf]-4,5,6,7,8,9-hexahydropyrazolo[3′,4′:7,8][1,5]diazecino[9,10,1-hi]indole-2-carboxylic Acid (Enantiomer 1)]
[1]
  IC50: 0.0163 µM
[2]
  EC50: 11.5 µM
[3]
  EC50: 9.37 µM
[4]; Homo sapiens, SU-DHL-5, 72 h
  IC50: 4.15e-06 M
[5]; Homo sapiens, A2780, 72 h
  IC50: 8.83e-06 M
[6]
  IC50: 1.49e-05 M
[7]; [9]
  IC50: 1.89e-05 M

## Cc1c2c(nn1C)COCCCn1c(C(=O)O)c(CCCOc3cccc4ccccc34)c3cccc-2c31 (single isomer, unassigned; enantiomer 1) [Example 064, 10,11-dimethyl-1-[3-(naphthalen-1-yloxy)propyl]-5,6,8,10-tetrahydro-4H-pyrazolo[4′,3′:8,9][1,5]oxazecino[7,6,5-h]indole-2-carboxylic acid-N-ethylethanamine Salt (Enantiomer 1)]
[1]
  IC50: 0.0115 µM
[2]
  EC50: 4.98 µM
[3]; Homo sapiens, SU-DHL10, 3 h
  EC50: 17.5 µM
[4]
  IC50: 1.12e-05 M
[5]; Homo sapiens, A2780, 72 h
  IC50: 3.14e-05 M
[6]
  IC50: 7.53e-06 M
[7]; [9]
  IC50: 2.59e-05 M

## CCn1nc(C2CC2)c2c1COCCCCn1c(C(=O)O)c(CCCOc3cccc4ccccc34)c3cccc-2c31 (single isomer, unassigned; enantiomer 1) [Example 089, 3-cyclopropyl-1-ethyl-7-[3-(naphthalen-1-yloxy)propyl]-1,10,11,12,13,15-hexahydropyrazolo[4′,3′:9,10][1,6]oxazacycloundecino[8,7,6-hi]indole-8-carboxylic acid-N-ethylethanamine Salt (Enantiomer 1)]
[1]
  IC50: 0.00384 µM
[2]
  EC50: 6.76 µM
[3]; Homo sapiens, SU-DHL10, 3 h
  EC50: 24.1 µM
[4]; Homo sapiens, SU-DHL-5, 72 h
  IC50: 1.71e-05 M
[5]; Homo sapiens, A2780, 72 h
  IC50: > 3.3e-05 M
[6]
  IC50: 7e-06 M
[7]; [9]
  IC50: 3e-05 M

## Cc1nn(CC(F)(F)F)c2c1-c1cccc3c(CCCOc4cccc5c4CCCC5)c(C(=O)O)n(c13)CCCCOC2 (single isomer, unassigned; enantiomer 1) [Example 162, 3-methyl-7-[3-(5,6,7,8-tetrahydronaphthalen-1-yloxy)propyl]-1-(2,2,2-trifluoroethyl)-1,10,11,12,13,15-hexahydropyrazolo[4′,3′:9,10][1,6]oxazacycloundecino[8,7,6-hi]indole-8-carboxylic acid-N-ethylethanamine Salt (Enantiomer 1)]
[1]
  IC50: 0.00761 µM
[2]
  EC50: 5.35 µM
[3]; Homo sapiens, SU-DHL10, 3 h
  EC50: 23.2 µM
[4]
  IC50: 6.96e-08 M
[5]; Homo sapiens, A2780, 72 h
  IC50: 2.55e-05 M
[6]
  IC50: 8.92e-06 M
[7]; [9]
  IC50: 2.3e-05 M

## Cc1nn(C)c2c1-c1cccc3c(CCCOc4cccc5cc(Cl)ccc45)c(C(=O)O)n(c13)CCCCOC2 (single isomer, unassigned; enantiomer 2) [Example 042, 7-{3-[(6-chloronaphthalen-1-yl)oxy]propyl}-1,3-dimethyl-1,10,11,12,13,15-hexahydropyrazolo[4′3′:9,10][1,6]oxazacycloundecino[8,7,6-hi]indole-carboxylic acid-N-ethylethanamine Salt (Enantiomer 2)]
[1]
  IC50: 0.0566 µM
[2]
  EC50: > 33 µM
[3]
  EC50: > 33 µM
[4]
  IC50: 4.97e-06 M
[5]
  IC50: 1.02e-05 M
[6]
  IC50: > 3.3e-05 M
[7]; [8]
  IC50: 3e-05 M
